Laboratory results taken from patent US20180133190A1, “MONOACYLGLYCEROLS AND FAT-SOLUBLE NUTRIENTS FOR USE IN THE TREATMENT OF NUTRIENT DEFICIENCY FROM MALDIGESTION” (NESTEC S.A., priority 2013, published 2018).

Experiments:
[1] = lipid maldigestion or malabsorption rat model (XENICAL-induced): EPA level in red blood cell lipids; format: in vivo, rats
Experimental: The concept was tested in a lipid maldigestion or malabsorption rat model. The maldigestion or malabsorption condition was obtained using XENICAL® (ORLISTAT), a pancreatic and gastric lipases inhibitor (tetrahydrolipstatin; see FIG. 7). Rats were fed during 21 days with long-chain polyunsaturated fatty acid (LC-PUFA) supplements containing mainly eicosapentaenoic (EPA) acid. Fish oil was used as a source of triacylglycerols, and different EPA glycerides were evaluated. XENICAL® (ORLISTAT) was given at a level sufficient to decrease lipid absorption by 40%. A group receiving fish oil without XENICAL® (ORLISTAT) was used as a positive control. At different time intervals (D3, D7, […]), the fatty acid profiles of red blood cell and plasma lipids were determined. At the end of the experiment, the fatty acid profiles of different tissues were determined. The main objective was to follow the level of EPA in red blood cell and plasma lipids. The main comparison evaluated was the difference in EPA level between the group receiving EPA-containing sn-1(3) MAG in combination with XENICAL® (ORLISTAT) and the positive control group (fish oil+XENICAL® (ORLISTAT)). […] This comparison corroborates the validity of the model.

[2] = clinical study: delivery of EPA under lipid maldigestion conditions induced by XENICAL (ORLISTAT); format: in vivo, humans
Experimental: This clinical study compared the efficacy of sn-1(3) MAG and fish oil (TAG) in delivering EPA in humans under lipid maldigestion conditions induced by XENICAL® (ORLISTAT). The comparison was tested in volunteers having a BMI of 37-40 kg/m2 and treated with XENICAL® (ORLISTAT) to induce lipid maldigestion or not treated with XENICAL® (ORLISTAT). The primary objective was to assess accretion of EPA in erythrocytes over 21 days when consumed as fish oil (TAG) or sn-1(3) MAG. The secondary objectives were to assess accretion of EPA in plasma over 21 days and also to assess the pharmacokinetics of EPA after an acute dose either in the form of sn-1(3) MAG or TAG (AUC in chylomicrons over 10 hours postprandial).

| Compound | incorporation of LC-PUFAs in tissue ([1]; rats, conditions of lipid maldigestion or malabsorption) | level of EPA incorporated in red blood cells vs fish oil group (without XENICAL) ([1]; rats, with XENICAL (ORLISTAT), day 7, FIG. 2) | level of EPA incorporated in red blood cells vs fish oil + XENICAL (ORLISTAT) group ([1]; rats, with XENICAL (ORLISTAT), day 7, all P values lower than 0.05, FIG. 2) | chronic effect: accretion of EPA in erythrocytes after 21 days ([2]; humans, with XENICAL (ORLISTAT), in comparison to fish oil and XENICAL, p=0.0001, FIG. 5) | chronic effect: accretion of EPA in plasma after 21 days ([2]; humans, with XENICAL (ORLISTAT), relative to fish oil and XENICAL, p=0.0003, FIG. 6) | carrier for EPA compared with fish oil (TAG) ([2]; obese subjects treated with XENICAL (ORLISTAT)) | EPA incorporation in red blood cells, effect of lipase inhibitor ([1]; rats fed fish oil with vs without XENICAL (ORLISTAT), day 7, FIG. 2) |
| --- | --- | --- | --- | --- | --- | --- | --- |
| CC/C=C\C/C=C\C/C=C\C/C=C\C/C=C\CCCC(=O)OCC(O)CO (stereo not shown) [sn-1(3) MAG that contained EPA, sn-1(3)-monoeicosapentaenoylglycerol] | the incorporation in tissue is improved | even higher than the fish oil group | statistically higher | statistically significant | statistically significant | better carrier for EPA than fish oil (TAG) |  |
| CCCCCCCCCCC[C@@H](C[C@@H]1OC(=O)[C@H]1CCCCCC)OC(=O)[C@H](CC(C)C)NC=O [XENICAL® (ORLISTAT), tetrahydrolipstatin, reference compound] |  |  |  |  |  |  | decreases EPA incorporation in red blood cells |
